Assay results as given in PubChem BioAssay (NCI).
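A five-concentration, 48-hour dose response in 96-well plates underlies each endpoint, interpolated linearly between surrounding concentrations. Definition used: TGI = concentration required for complete inhibition of growth.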

Assays:
Assay in all cases: NCI-60 cell line screen, 48 h
[1] = system: SNB-75 CNS
[2] = system: OVCAR-8 ovarian
[3] = system: DMS 273 small cell lung
[4] = system: HOP-92 NSCLC
[5] = system: KM12 colon
[6] = system: HCT-116 colon
[7] = system: SN12C renal
[8] = system: A498 renal
[9] = system: HOP-18 NSCLC
[10] = system: A549 NSCLC
[11] = system: SNB-19 CNS
[12] = system: HCC-2998 colon
[13] = system: SK-OV-3 ovarian
[14] = system: OVCAR-4 ovarian
[15] = system: K-562 leukemia
[16] = system: DLD-1 colon
[17] = system: NCI-H226 lung
[18] = system: ACHN renal
[19] = system: EKVX NSCLC
[20] = system: IGROV1 ovarian
[21] = system: HCT-15 colon
[22] = system: HL-60(TB) leukemia
[23] = system: CAKI-1 renal
[24] = system: SK-MEL-2 melanoma
[25] = system: M14 melanoma
[26] = system: SF-268 CNS
[27] = system: RPMI-8226 leukemia
[28] = system: LXFL 529 NSCLC
[29] = system: NCI-H23 lung
[30] = system: KM20L2 colon
[31] = system: CCRF-CEM leukemia
[32] = system: TK-10 renal
[33] = system: MOLT-4 leukemia
[34] = system: SK-MEL-28 melanoma
[35] = system: XF 498 CNS
[36] = system: 786-0 renal
[37] = system: UO-31 renal
[38] = system: HT29 colon
[39] = system: SK-MEL-5 melanoma
[40] = system: DMS 114 small cell lung
[41] = system: RXF 393 renal
[42] = system: M19-MEL melanoma
[43] = system: U251 CNS
[44] = system: OVCAR-3 ovarian
[45] = system: SF-295 CNS
[46] = system: SF-539 CNS
[47] = system: NCI-H460 lung
[48] = system: SW-620 colon
[49] = system: NCI-H522 lung
[50] = system: COLO 205 colon
[51] = system: T-47D breast
[52] = system: BT-549 breast
[53] = system: DU-145 prostate
[54] = system: OVCAR-5 ovarian

COc1cc(NC(C)=O)c2[nH]c3c(C)cc(NC(C)=O)c(C)c3c2c1
TGI [1]: > 100 µM | TGI [2]: > 100 µM | TGI [3]: > 100 µM | TGI [4]: > 100 µM | TGI [5]: > 100 µM | TGI [6]: > 100 µM | TGI [7]: > 100 µM | TGI [8]: > 100 µM | TGI [9]: > 100 µM | TGI [10]: > 100 µM | TGI [11]: > 100 µM | TGI [12]: > 100 µM | TGI [13]: > 100 µM | TGI [14]: > 100 µM | TGI [15]: > 100 µM | TGI [16]: > 100 µM | TGI [17]: > 100 µM | TGI [18]: > 100 µM | TGI [19]: > 100 µM | TGI [20]: > 100 µM | TGI [21]: > 100 µM | TGI [22]: > 100 µM | TGI [23]: > 100 µM | TGI [24]: > 100 µM | TGI [25]: > 100 µM | TGI [26]: > 100 µM | TGI [27]: > 100 µM | TGI [28]: > 100 µM | TGI [29]: > 100 µM | TGI [30]: > 100 µM | TGI [31]: > 100 µM | TGI [32]: > 100 µM | TGI [33]: > 100 µM | TGI [34]: > 100 µM | TGI [35]: > 100 µM | TGI [36]: > 100 µM | TGI [37]: > 100 µM | TGI [38]: > 100 µM | TGI [39]: > 100 µM | TGI [40]: > 100 µM | TGI [41]: > 100 µM | TGI [42]: > 100 µM | TGI [43]: > 100 µM | TGI [44]: > 100 µM | TGI [45]: > 100 µM | TGI [46]: > 100 µM | TGI [47]: > 100 µM | TGI [48]: > 100 µM | TGI [49]: > 100 µM | TGI [50]: > 100 µM

COc1ccc(/C=C/c2cc(OC)c(OC)c(OC)c2)cc1O
TGI [12]: 36.9 µM | TGI [13]: 39.9 µM | TGI [14]: 71.5 µM | TGI [51]: 45.7 µM | TGI [19]: 59.3 µM | TGI [52]: 40.7 µM | TGI [30]: 25.1 µM | TGI [53]: 38.9 µM | TGI [32]: 75.1 µM | TGI [36]: 15.3 µM | TGI [37]: 21 µM | TGI [38]: 24 µM | TGI [54]: 79.5 µM | TGI [50]: 54.3 µM
